Patent US10065990B2, “Cyclic peptide compound, and preparation method, pharmaceutical composition and use thereof” (HANGZHOU GUANYU BIO-MEDICAL CO., LTD, priority 2013, dated 2018)
Read-outs that look alike come from different tables or passages of the source.

What was measured:
[1] = system: PANC-1 (Pac-1, human pancreatic cancer cells); test: MTT cancer cell growth inhibition; type: cell-based; conditions: Homo sapiens, PANC-1, 72 h, MTT
In short: (§1)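 Following overnight attachment of 1500 cells per well, each line was exposed to test drug (final 10^−5 to 10^−10 M) for 72 h in a humidified 37° C., 5% CO2 incubator. Four hours with MTT, DMSO dissolution of formazan, and a 570 nm reading yielded viability data used for GI50.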

[2] = system: BGC-823 (human gastric cancer cells); test: MTT cancer cell growth inhibition; type: cell-based; conditions: Homo sapiens, BGC-823, 72 h, MTT
In short: as §1

[3] = system: KBM-5 (human chronic myelogenous leukemia); test: MTT cancer cell growth inhibition; type: cell-based; conditions: Homo sapiens, KBM5, 72 h, MTT, 72 hours incubation, KBM-5 cells; read-out: GI50 KBM-5
In short: as §1

[4] = system: MCF-7 (human breast cancer cells); test: MTT cancer cell growth inhibition; type: cell-based; conditions: Homo sapiens, MCF7, 72 h
In short: as §1

[5] = system: Huh-7 (human hepatoma cells); test: MTT cancer cell growth inhibition; type: cell-based; conditions: Homo sapiens, Huh-7, 72 h, MTT, 72 hours incubation, Huh-7 cells; read-out: GI50 Huh-7
In short: as §1

[6] = system: A549 (human lung cancer cells); test: MTT cancer cell growth inhibition; type: cell-based; conditions: Homo sapiens, A549, 72 h, MTT
In short: as §1

[7] = system: MOLT-4 (human acute lymphoblastic leukemia cells); test: MTT cancer cell growth inhibition; type: cell-based; conditions: Homo sapiens, MOLT-4, 72 h, MTT
In short: as §1

[8] = system: K562 (human leukemia cells); test: MTT cancer cell growth inhibition; type: cell-based; conditions: Homo sapiens, K562, 72 h, MTT, 72 hours incubation, K562 cells; read-out: GI50 K562
In short: as §1

[9] = system: HCC827 (human non-small cell lung cancer cells); test: MTT cancer cell growth inhibition; type: cell-based; conditions: Homo sapiens, HCC827, 72 h, MTT, 72 hours incubation, HCC827 cells; read-out: GI50 HCC827
In short: as §1

[10] = system: lncap (prostate cancer cells); test: MTT cancer cell growth inhibition; type: cell-based; conditions: Homo sapiens, LNCaP, 72 h, MTT
In short: as §1

[11] = system: HT1080 (human fibrosarcoma cells); test: MTT cancer cell growth inhibition; type: cell-based; conditions: Homo sapiens, HT-1080, 72 h, MTT
In short: as §1

[12] = system: SGC-7901 (human gastric cancer cells); test: MTT cancer cell growth inhibition; type: cell-based; conditions: Homo sapiens, SGC-7901, 72 h, MTT, 72 hours incubation, SGC-7901 cells; read-out: GI50 SGC-7901
In short: as §1

[13] = system: MDA-MB-231 (breast cancer cells); test: MTT cancer cell growth inhibition; type: cell-based; conditions: Homo sapiens, MDA-MB-231, 72 h, read-out: GI50 MDA-MB-231, MTT, 72 hours incubation, MDA-MB-231 cells
In short: as §1

[14] = system: N-87 (human gastric cancer cells); test: MTT cancer cell growth inhibition; type: cell-based; conditions: Homo sapiens, 72 h, MTT, 72 hours incubation, N-87 cells; read-out: GI50 N-87
In short: as §1

[15] = system: U937 (human leukemia cells); test: MTT cancer cell growth inhibition; type: cell-based; conditions: Homo sapiens, U-937, 72 h, MTT
In short: as §1

[16] = system: KBM5-T315I (human chronic myelogenous leukemia); test: MTT cancer cell growth inhibition; type: cell-based; conditions: Homo sapiens, 72 h, MTT, 72 hours incubation, KBM5-T315I cells; read-out: GI50 KBM5-T315I
In short: as §1

[17] = system: DU145 (human prostate cancer cells); test: MTT cancer cell growth inhibition; type: cell-based; conditions: Homo sapiens, DU-145, 72 h, MTT
In short: as §1

[18] = system: Hela (human cervical cancer cells); test: MTT cancer cell growth inhibition; type: cell-based; conditions: Homo sapiens, HeLa, 72 h, MTT
In short: as §1

[19] = system: H1975 (non-small cell lung adenocarcinoma); test: MTT cancer cell growth inhibition; type: cell-based; conditions: Homo sapiens, NCI-H1975, 72 h, MTT, 72 hours incubation, H1975 cells; read-out: GI50 H1975
In short: as §1

[20] = system: Bel-7402 (human hepatoma cells); test: MTT cancer cell growth inhibition; type: cell-based; conditions: Homo sapiens, Bel-7402, 72 h, MTT, 72 hours incubation, Bel-7402 cells; read-out: GI50 Bel-7402
In short: as §1

HDAC3 = HDAC3 (Homo sapiens, UniProt O15379); test: HDAC biochemical activity measurement (fluorescent substrate deacetylation);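 further: fluorogenic acetyl-lysine substrate (20 µM) deacetylated by HDAC3, then developer added for 15 min at room temperature, release of fluorophore read at excitation 360 nm, emission 460 nm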; conditions: read-out: IC50 HDAC3; HDAC3; 37° C. 30 minutes
HDAC3, sequence (O15379 whole entry, species assumed): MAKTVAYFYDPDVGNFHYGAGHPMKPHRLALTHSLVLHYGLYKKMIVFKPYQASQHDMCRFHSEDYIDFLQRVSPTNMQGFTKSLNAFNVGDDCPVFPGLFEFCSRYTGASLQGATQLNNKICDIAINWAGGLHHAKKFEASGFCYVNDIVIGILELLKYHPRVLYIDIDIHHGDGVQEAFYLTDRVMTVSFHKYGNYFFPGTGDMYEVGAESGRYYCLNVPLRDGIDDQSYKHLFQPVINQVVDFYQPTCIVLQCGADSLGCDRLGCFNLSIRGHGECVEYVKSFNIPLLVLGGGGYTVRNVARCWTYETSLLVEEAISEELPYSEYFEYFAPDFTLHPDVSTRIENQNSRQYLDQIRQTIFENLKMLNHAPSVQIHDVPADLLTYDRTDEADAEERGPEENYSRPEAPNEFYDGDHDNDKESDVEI
HDAC3, sequence (Q9Y618 395-489 partner limits assumed, species assumed): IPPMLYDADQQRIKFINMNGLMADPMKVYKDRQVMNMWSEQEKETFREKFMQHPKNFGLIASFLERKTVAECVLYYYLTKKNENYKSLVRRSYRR
Method: The chemical activity of the compound is determined according to the degree of deacetylation inhibition of the HDAC enzyme. This experiment measured the degree of deacetylation related to tumor proliferation and metastasis of HDAC1, HDAC2, HDAC3, HDAC8, HDAC11 five subtypes HDAC enzymes. After the substrate containing an acetylated lysine side chain and HDAC enzyme are labeled with a fluorescent label, the fluorescent substrate is de acetyl. The fluorescent labeled substrate is cleaved by the enzyme, and the fluorescent substance is released, which generates 460 nm emission light under the excitation of 360 nm light.
HDAC substrate was diluted with reaction buffer to 200M (reaction concentration of 20M), the HDAC enzyme was diluted to the appropriate concentration, then added different concentrations of the test compounds and acted at 37° C. 30 minutes, and then added the same volume of 2-times concentration substrate developing solution (developer), incubated at room temperature for 15 minutes.

HDAC2 = HDAC2 (Homo sapiens, UniProt Q92769); test: as above; conditions: 37° C. 30 minutes;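 further: HDAC2 enzyme with an acetyl-lysine fluorescent substrate, then developer added, fluorescence read at excitation 360 nm and emission 460 nm, inhibition measured across several compound concentrations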
HDAC2, sequence (Q92769 whole entry, species assumed): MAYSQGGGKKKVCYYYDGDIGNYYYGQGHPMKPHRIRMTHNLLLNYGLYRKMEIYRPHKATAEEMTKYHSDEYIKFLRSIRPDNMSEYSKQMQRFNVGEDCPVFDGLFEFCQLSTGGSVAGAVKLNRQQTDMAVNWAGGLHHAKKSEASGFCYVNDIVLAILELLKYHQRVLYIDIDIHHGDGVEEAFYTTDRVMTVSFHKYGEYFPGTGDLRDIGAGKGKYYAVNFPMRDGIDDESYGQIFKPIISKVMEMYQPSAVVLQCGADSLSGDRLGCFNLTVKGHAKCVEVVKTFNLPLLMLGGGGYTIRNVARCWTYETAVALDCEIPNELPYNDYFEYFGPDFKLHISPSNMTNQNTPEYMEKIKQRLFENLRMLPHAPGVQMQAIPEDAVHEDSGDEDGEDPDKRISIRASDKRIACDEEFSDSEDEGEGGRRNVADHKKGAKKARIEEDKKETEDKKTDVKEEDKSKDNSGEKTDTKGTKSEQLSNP

HDAC1 = HDAC1 (Homo sapiens, UniProt Q13547); test: as above;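 further: fluorogenic acetyl-lysine substrate (20 µM) deacetylated by HDAC1, then developer releases fluorophore read at 360 nm excitation and 460 nm emission, inhibitor incubated 30 min at 37 °C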
HDAC1, sequence (Q13547 whole entry, species assumed): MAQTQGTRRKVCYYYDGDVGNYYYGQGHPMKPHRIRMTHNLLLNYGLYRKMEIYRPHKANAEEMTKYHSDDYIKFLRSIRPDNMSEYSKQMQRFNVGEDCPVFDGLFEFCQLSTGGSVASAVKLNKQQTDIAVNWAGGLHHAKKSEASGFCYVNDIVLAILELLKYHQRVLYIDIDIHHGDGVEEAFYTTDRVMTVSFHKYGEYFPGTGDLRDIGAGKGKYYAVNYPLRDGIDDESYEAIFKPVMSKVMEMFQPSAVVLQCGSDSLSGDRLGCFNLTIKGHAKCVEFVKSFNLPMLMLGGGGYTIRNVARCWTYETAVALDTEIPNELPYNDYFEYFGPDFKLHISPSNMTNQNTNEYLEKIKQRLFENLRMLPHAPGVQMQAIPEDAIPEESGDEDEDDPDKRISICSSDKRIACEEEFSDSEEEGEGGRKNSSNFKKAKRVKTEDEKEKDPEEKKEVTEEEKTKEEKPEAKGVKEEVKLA

- GI50 ([1]; 72 hours, present invention, read-out: GI50 PANC-1, a): 930 nM
- GI50 ([1]; PANC-1 cells, 72 hours incubation, read-out: GI50 PAN): 930 nM
- GI50 ([2]; BGC-823 cells, 72 hours incubation, read-out: GI50 BG): 170 nM
- GI50 ([2]; 72 hours, present invention, read-out: GI50 BGC823, a): 170 nM
- GI50 [3]: 49 nM
- GI50 ([4]; 72 hours, present invention, read-out: GI50 MCF7, a): 350 nM
- GI50 ([4]; MCF-7 cells, 72 hours incubation, read-out: GI50 MCF): 350 nM
- GI50 [5]: 49 nM
- GI50 ([6]; A549 cells, 72 hours incubation, read-out: GI50 A54): 420 nM
- GI50 ([6]; 72 hours, present invention, read-out: GI50 A549, a): 420 nM
- GI50 ([7]; MOLT-4 cells, 72 hours incubation, read-out: GI50 Mol): 970 nM
- GI50 ([7]; 72 hours, present invention, read-out: GI50 Molt-4, a): 970 nM
- GI50 [8]: 69 nM
- GI50 [9]: 25 nM
- GI50 ([10]; 72 hours, present invention, read-out: GI50 lncap, a): 940 nM
- GI50 ([10]; lncap cells, 72 hours incubation, read-out: GI50 lnca): 940 nM
- GI50 ([11]; HT1080 cells, 72 hours incubation, read-out: GI50 HT1): 990 nM
- GI50 ([11]; 72 hours, present invention, read-out: GI50 HT1080, a): 990 nM
- GI50 [12]: 33 nM
- GI50 [13]: 12 nM
- GI50 [14]: 58 nM
- GI50 ([15]; 72 hours, present invention, read-out: GI50 U937, a): 110 nM
- GI50 ([15]; U937 cells, 72 hours incubation, read-out: GI50 U93): 110 nM
- GI50 [16]: 87 nM
- GI50 ([17]; DU145 cells, 72 hours incubation, read-out: GI50 Du1): 40 nM
- GI50 ([17]; 72 hours, present invention, read-out: GI50 Du145, a): 40 nM
- GI50 ([18]; Hela cells, 72 hours incubation, read-out: GI50 Hela): 880 nM
- GI50 ([18]; 72 hours, present invention, read-out: GI50 Hela, a): 880 nM
- GI50 [19]: 83 nM
- GI50 [20]: 42 nM
- IC50 (HDAC3): 35 nM
- IC50 (HDAC2): 32 nM
- IC50 (HDAC1; HDAC1, 37° C. 30 minutes, read-out: IC50 HDAC1): 72 nM
- IC50 (HDAC1; Table 2, read-out: IC50 HDAC1, a (compounds of the present invention)): < 80 nM
Structure (SMILES): C/C=C1\NC(=O)c2cccc(n2)CNC(=O)C[C@@H](/C=C/CCSC(=O)CCCCCCC)OC(=O)[C@H](C(C)(C)C)NC1=O [Compound 237]
